# Experimental data taken from publication PMC6282036, “Dual-Specificity Phosphatase CDC25B Was Inhibited by Natural Product HB-21 Through Covalently Binding to the Active Site” (Frontiers in Chemistry, 2018).
# Tests used:
# Cdc25B [1] = target: T1, Cdc25B (Homo sapiens, UniProt P30305); test: intact protein ESI-Q-TOF MS of covalent adducts; IC50 from OMFP fluorometric assay with recombinant Cdc25B; type: biochemical
# T1 construct: Cdc25B catalytic domain (372–551)
# T1 sequence (P30305 386-565): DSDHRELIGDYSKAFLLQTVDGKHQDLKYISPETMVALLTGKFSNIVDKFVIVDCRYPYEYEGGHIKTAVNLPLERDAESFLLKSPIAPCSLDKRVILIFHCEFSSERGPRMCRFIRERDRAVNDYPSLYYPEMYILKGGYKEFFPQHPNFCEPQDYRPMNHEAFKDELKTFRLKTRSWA
# Cdc25B [2] = target: T2, Cdc25B (Homo sapiens, UniProt P30305); test: OMFP fluorometric phosphatase assay (CycLex Cdc25B kit), positive control; type: biochemical
# T2 construct: recombinant human Cdc25B
# T2 sequence (P30305 1-580): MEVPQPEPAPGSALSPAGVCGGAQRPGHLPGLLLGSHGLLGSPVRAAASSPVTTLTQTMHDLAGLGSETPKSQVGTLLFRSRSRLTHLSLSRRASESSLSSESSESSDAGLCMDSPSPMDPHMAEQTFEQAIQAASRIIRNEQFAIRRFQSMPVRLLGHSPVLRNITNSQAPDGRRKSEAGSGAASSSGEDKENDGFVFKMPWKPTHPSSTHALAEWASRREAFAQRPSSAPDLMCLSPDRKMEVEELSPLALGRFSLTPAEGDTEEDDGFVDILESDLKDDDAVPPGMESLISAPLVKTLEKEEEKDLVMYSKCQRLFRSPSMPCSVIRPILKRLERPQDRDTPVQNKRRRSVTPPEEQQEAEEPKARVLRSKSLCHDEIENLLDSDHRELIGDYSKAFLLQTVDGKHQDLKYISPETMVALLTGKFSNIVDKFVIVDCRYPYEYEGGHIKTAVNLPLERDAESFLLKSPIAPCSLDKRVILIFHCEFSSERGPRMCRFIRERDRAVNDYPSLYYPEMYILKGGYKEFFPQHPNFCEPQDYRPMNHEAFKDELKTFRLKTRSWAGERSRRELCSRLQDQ
IC50 (Cdc25B [1]) [µM],IC50 (Cdc25B [2]) [µM],Compound
24.8 ± 1.63,,C=C1C(=O)O[C@@H]2C[C@H](C)C(CCC(C)=O)=C[C@H](O)[C@H]12 [HB-21]
,5.37 ± 0.45,CNC1=CC(=O)c2ccncc2C1=O [Caulibugulone A]
